Reference: US20230255906A1, “Targeting Serpin B9 in Cancer” (The Brigham and Women`s Hospital, Inc., priority 2020, published 2023)

test system: B16 melanoma cells; assay: Caspase-3 activity assay (EnzChek Caspase-3 Assay Kit), caspase-3 induction in tumor cells; type: cell-based, mouse; details: not given; further: test concentration or dose not given here
Source text: The EnzChek® Caspase-3 Assay Kit was used to detect apoptosis by assaying for increases in caspase-3 activities. The basis for the assay was rhodamine 110 bis-(N-CBZ-L-aspartyl-L-glutamyl-L-valyl-L-aspartic acid amide) (Z-DEVD-R110). This substrate is a bisamide derivative of rhodamine 110 (R110) containing DEVD peptides covalently linked to each of R110's amino groups, thereby suppressing the dye's visible absorption and its fluorescence. Upon enzymatic cleavage, the nonfluorescent bisamide substrate is converted in a two-step process first to a fluorescent monoamide and then to an even more fluorescent R110.
At least 1×10^6 cells of the lysate were used for each reaction. B16 cells were treated with compounds to induce apoptosis. A negative control was prepared by incubating cells in the absence of compounds. The cells were incubated with compounds for 24 hrs and washed in PBS. Each cell sample or control was resuspended in 50 μL of the 1×cell lysis buffer. Cells were lysed by incubating on ice for 30 minutes, and the lysed cells were centrifuged to pellet the cellular debris. 50 μL of the supernatant was transferred from each sample to individual microplate wells. 50 μL of the 1× cell lysis buffer was used as a no-enzyme control to determine the background fluorescence of the substrate. 50 μL of the 2×substrate working solution was added to each sample and control. The microplate was covered, and the samples were incubated at room temperature for approximately 30 minutes. The fluorescence was measured by a fluorescence microplate reader (excitation/emission ˜496/520 nm) using excitation and emission filters.
The ability of this small molecule inhibitor to inhibit intracellular Sb9 was then evaluated. As a marker for cell penetration, the induction of caspase-3 activity in B16 melanoma cells as a surrogate marker for increased GrB activity was measured.
The induction of caspase-3 activity in B16 melanoma cells as a surrogate marker for increased GrB activity was also measured for other small molecules (compounds of Formulas (V) and (VI) as described herein).

Row | SMILES | Ratio of caspase-3 activity to Formula (III)
1 | CO[C@H]1CN(C)C[C@@H]1NC(=O)c1ccc2oc(-c3cccc(F)c3)nc2c1 (relative stereo) [2-(3-fluorophenyl)-N-[(3S*,4S*)-4-methoxy-1-methylpyrrolidin-3-yl]-1,3-benzoxazole-5-carboxamide] | 0.08936
2 | CCC(=O)C1CCCN(C(=O)c2ccc3nc(-c4cccc(OC)c4)oc3c2)C1 (stereo not drawn) [1-(1-{[2-(3-methoxyphenyl)-1,3-benzoxazol-6-yl]carbonyl}-3-piperidinyl)-1-propanone] | 0.1346
3 | O=C(c1ccc2nc(-c3ccccc3)oc2c1)N1CCC(O)CC1 [1-(2-phenyl-1,3-benzoxazole-6-carbonyl)piperidin-4-ol] | 1.327
4 | O=C(c1ccc2oc(-c3cccc(F)c3)nc2c1)N1CCC(O)(c2ccccc2)CC1 [1-{[2-(3-fluorophenyl)-1,3-benzoxazol-5-yl]carbonyl}-4-phenyl-4-piperidinol] | 0.1773
5 | COc1cccc(-c2nc3ccc(C(=O)N4CCC(N(C)C)C4)cc3o2)c1 (stereo not drawn) [1-{[2-(3-methoxyphenyl)-1,3-benzoxazol-6-yl]carbonyl}-N,N-dimethyl-3-pyrrolidinamine] | 0.9908
6 | CCN(CCN(C)C)C(=O)c1cnc2c(c1)nc(-c1ccccc1Cl)n2C [2-(2-chlorophenyl)-N-[2-(dimethylamino)ethyl]-N-ethyl-3-methyl-3H-imidazo[4,5-b]pyridine-6-carboxamide] | 1.106
7 | COCCOC1CCN(C(=O)c2ccc3oc(-c4cccc(F)c4)nc3c2)CC1 [2-(3-fluorophenyl)-5-{[4-(2-methoxyethoxy)-1-piperidinyl]carbonyl}-1,3-benzoxazole] | 0.1314
8 | CN(CCC(O)c1ccccc1)C(=O)c1ccc2oc(-c3cccc(F)c3)nc2c1 (stereo not drawn) [2-(3-fluorophenyl)-N-(3-hydroxy-3-phenylpropyl)-N-methyl-1,3-benzoxazole-5-carboxamide] | 0.1288
9 | O=C(NCc1cccnc1)c1ccc2oc(-c3cccc(F)c3)nc2c1 [2-(3-fluorophenyl)-N-(3-pyridinylmethyl)-1,3-benzoxazole-5-carboxamide] | 0.1077
10 | O=C(NCc1ccno1)c1ccc2oc(-c3cccc(F)c3)nc2c1 [2-(3-fluorophenyl)-N-(isoxazol-5-ylmethyl)-1,3-benzoxazole-5-carboxamide] | 0.09526
11 | CC(NC(=O)c1ccc2oc(-c3cccc(F)c3)nc2c1)c1ncn[nH]1 (stereo not drawn) [2-(3-fluorophenyl)-N-[1-(1H-1,2,4-triazol-5-yl)ethyl]-1,3-benzoxazole-5-carboxamide] | 0.1158
12 | CC(Cn1cncn1)NC(=O)c1ccc2oc(-c3cccc(F)c3)nc2c1 (stereo not drawn) [2-(3-fluorophenyl)-N-[1-methyl-2-(1H-1,2,4-triazol-1-yl)ethyl]-1,3-benzoxazole-5-carboxamide] | 0.1014
13 | Cn1cc(CCNC(=O)c2ccc3oc(-c4cccc(F)c4)nc3c2)cn1 [2-(3-fluorophenyl)-N-[2-(1-methyl-1H-pyrazol-4-yl)ethyl]-1,3-benzoxazole-5-carboxamide] | 0.4475
14 | O=C(NCCn1cccn1)c1ccc2oc(-c3cccc(F)c3)nc2c1 [2-(3-fluorophenyl)-N-[2-(1H-pyrazol-1-yl)ethyl]-1,3-benzoxazole-5-carboxamide] | 0.4693
15 | O=C(NCCc1cn[nH]c1)c1ccc2oc(-c3cccc(F)c3)nc2c1 [2-(3-fluorophenyl)-N-[2-(1H-pyrazol-4-yl)ethyl]-1,3-benzoxazole-5-carboxamide] | 0.4925
16 | O=C(NCCc1ccco1)c1ccc2oc(-c3cccc(F)c3)nc2c1 [2-(3-fluorophenyl)-N-[2-(2-furyl)ethyl]-1,3-benzoxazole-5-carboxamide] | 0.09438
17 | Cn1cnnc1CCNC(=O)c1ccc2oc(-c3cccc(F)c3)nc2c1 [2-(3-fluorophenyl)-N-[2-(4-methyl-4H-1,2,4-triazol-3-yl)ethyl]-1,3-benzoxazole-5-carboxamide] | 0.7133
18 | O=C(NCCCn1cccn1)c1ccc2oc(-c3cccc(F)c3)nc2c1 [2-(3-fluorophenyl)-N-[3-(1H-pyrazol-1-yl)propyl]-1,3-benzoxazole-5-carboxamide] | 0.9113
19 | Cn1cc(CNC(=O)c2ccc3oc(-c4cccc(F)c4)nc3c2)cn1 [2-(3-fluorophenyl)-N-[(1-methyl-1H-pyrazol-4-yl)methyl]-1,3-benzoxazole-5-carboxamide] | 0.1005
20 | Cc1nc(CNC(=O)c2ccc3oc(-c4cccc(F)c4)nc3c2)cs1 [2-(3-fluorophenyl)-N-[(2-methyl-1,3-thiazol-4-yl)methyl]-1,3-benzoxazole-5-carboxamide] | 0.09788
21 | O=C(N[C@H]1CCCCNC1=O)c1ccc2oc(-c3cccc(F)c3)nc2c1 [2-(3-fluorophenyl)-N-[(3S)-2-oxo-3-azepanyl]-1,3-benzoxazole-5-carboxamide] | 0.771
22 | CC(C)N(Cc1nccn1C)C(=O)c1ccc2oc(-c3cccc(F)c3)nc2c1 [2-(3-fluorophenyl)-N-isopropyl-N-[(1-methyl-1H-imidazol-2-yl)methyl]-1,3-benzoxazole-5-carboxamide] | 1.634
23 | CN(CCN1CCCCC1)C(=O)c1ccc2oc(-c3cccc(F)c3)nc2c1 [2-(3-fluorophenyl)-N-methyl-N-[2-(1-piperidinyl)ethyl]-1,3-benzoxazole-5-carboxamide] | 0.1405
24 | CCCOC1CCCN(C(=O)c2ccc3nc(-c4cccc(OC)c4)oc3c2)C1 (stereo not drawn) [2-(3-methoxyphenyl)-6-[(3-propoxy-1-piperidinyl)carbonyl]-1,3-benzoxazole] | 0.1495
25 | COc1cccc(-c2nc3ccc(C(=O)N4CCN(Cc5cccnc5)CC4)cc3o2)c1 [2-(3-methoxyphenyl)-6-{[4-(3-pyridinylmethyl)-1-piperazinyl]carbonyl}-1,3-benzoxazole] | 0.1411
26 | COc1cccc(-c2nc3ccc(C(=O)NCc4nnn[nH]4)cc3o2)c1 [2-(3-methoxyphenyl)-N-(1H-tetrazol-5-ylmethyl)-1,3-benzoxazole-6-carboxamide] | 0.3911
27 | COc1cccc(-c2nc3ccc(C(=O)NCC(F)(F)F)cc3o2)c1 [2-(3-methoxyphenyl)-N-(2,2,2-trifluoroethyl)-1,3-benzoxazole-6-carboxamide] | 0.09526
28 | COc1cccc(-c2nc3ccc(C(=O)NCC4CCCO4)cc3o2)c1 (stereo not drawn) [2-(3-methoxyphenyl)-N-(tetrahydro-2-furanylmethyl)-1,3-benzoxazole-6-carboxamide] | 0.4304
29 | COc1cccc(-c2nc3ccc(C(=O)NCC4CCCCO4)cc3o2)c1 (stereo not drawn) [2-(3-methoxyphenyl)-N-(tetrahydro-2H-pyran-2-ylmethyl)-1,3-benzoxazole-6-carboxamide] | 1.425
30 | COc1cccc(-c2nc3ccc(C(=O)NCC4CCOCC4)cc3o2)c1 [2-(3-methoxyphenyl)-N-(tetrahydro-2H-pyran-4-ylmethyl)-1,3-benzoxazole-6-carboxamide] | 0.09286

same assay, conditions: relative to compound of Formula (III)

Row | SMILES | Caspase-3 induction, Normalized to Formula (III) (%)
31 | COc1cc(Br)c(C(=O)N2CCCC2)cc1OC [1-(2-bromo-4,5-dimethoxybenzoyl)pyrrolidine] | 18.4794%
32 | O=C(c1ccc2nc(C(F)(F)C(F)(F)F)oc2c1)N1CCCC1 [2-(1,1,2,2,2-pentafluoroethyl)-6-(pyrrolidine-1-carbonyl)-1,3-benzoxazole] | −38.2832%
33 | O=C(Cc1ccc2ocnc2c1)N1CCCC1 [2-(1,3-benzoxazol-5-yl)-1-(pyrrolidin-1-yl)ethan-1-one] | 3.0541%
34 | COCCCNC(=O)Cc1ccc2ocnc2c1 [2-(1,3-benzoxazol-5-yl)-N-(3-methoxypropyl)acetamide] | −31.2011%
35 | O=C(Cc1ccc2ocnc2c1)NCc1ccccc1 [2-(1,3-benzoxazol-5-yl)-N-benzylacetamide] | −34.4942%
36 | O=C(Cc1ccc2ocnc2c1)NC1CCCC1 [2-(1,3-benzoxazol-5-yl)-N-cyclopentylacetamide] | −4.02%
37 | O=C(c1ccc2nc(-c3cc(Cl)cc(Cl)c3)oc2c1)N1CCCC1 [2-(3,5-dichlorophenyl)-6-(pyrrolidine-1-carbonyl)-1,3-benzoxazole] | −6.23%
38 | COCCCNC(=O)c1ccc2nc(-c3cc(Cl)cc(Cl)c3)oc2c1 [2-(3,5-dichlorophenyl)-N-(3-methoxypropyl)-1,3-benzoxazole-6-carboxamide] | −31.5901%
39 | CCN(C)C(=O)c1ccc2nc(-c3cc(Cl)cc(Cl)c3)oc2c1 [2-(3,5-dichlorophenyl)-N-ethyl-N-methyl-1,3-benzoxazole-6-carboxamide] | −85.6535%
